Test results published in paper PMC10244465, “Native American ataxia medicines rescue ataxia-linked mutant potassium channel activity via binding to the voltage sensing domain” (Nature Communications, 2023).
Where two headings read alike, the source gives them in different places.

Assays:
Format in all cases: cell-based
[1] = molecular target: T1, Kv1.1/Kv1.1-L155P channels (Homo sapiens, UniProt Q09470, L155P); experiment: TEVC of oocytes co-injected with 50/50 wild-type/L155P Kv1.1 cRNA
T1 construct: expressed in transfected cells; host or cells: Xenopus laevis oocytes co-injected with 50/50 wild-type/L155P cRNA
T1 sequence (Q09470 whole entry, stated change not applied): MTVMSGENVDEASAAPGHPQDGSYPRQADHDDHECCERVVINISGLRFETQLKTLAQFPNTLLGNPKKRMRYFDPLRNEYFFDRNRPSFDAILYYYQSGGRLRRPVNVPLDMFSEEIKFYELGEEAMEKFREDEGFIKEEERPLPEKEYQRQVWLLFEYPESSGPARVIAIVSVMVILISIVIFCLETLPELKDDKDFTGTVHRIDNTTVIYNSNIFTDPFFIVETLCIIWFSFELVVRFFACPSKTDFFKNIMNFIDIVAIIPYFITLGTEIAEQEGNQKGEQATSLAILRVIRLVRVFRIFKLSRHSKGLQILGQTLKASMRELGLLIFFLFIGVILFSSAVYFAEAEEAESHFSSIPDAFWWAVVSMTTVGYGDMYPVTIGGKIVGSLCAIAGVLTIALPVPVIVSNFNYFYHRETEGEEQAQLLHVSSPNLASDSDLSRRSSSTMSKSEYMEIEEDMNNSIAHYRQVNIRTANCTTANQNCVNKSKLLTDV
T1 sequence (Q09470 whole entry L155P): as the sequence (Q09470 whole entry, stated change not applied) above, with L155P counted along it
Description: As previously described[24], we generated cRNA transcripts encoding human Kv1.1 (wild-type and mutant) and Kv1.2, by in vitro transcription using the mMessage mMachine kit (Thermo Fisher Scientific), after vector linearization, from cDNA sub-cloned into plasmids (pTLNx) incorporating Xenopus laevis β-globin 5’ and 3’ UTRs flanking the coding region to enhance translation and cRNA stability. We injected defolliculated stage V and VI Xenopus laevis oocytes (Xenoocyte, Dexter, MI, US) with Kv1 cRNAs (1–5 ng). We incubated the oocytes at 16 °C in ND96 oocyte storage solution containing penicillin and streptomycin, with daily washing, for 2 days prior to two-electrode voltage-clamp (TEVC) recording.

wild-type human Kv1.1 = molecular target: T2, wild-type human Kv1.1 (Homo sapiens, UniProt Q09470); experiment: Two-electrode voltage clamp of oocytes expressing wild-type Kv1.1; settings: for shift of midpoint voltage-dependence of activation (V0.5 act): 100 µM; for effect on Kv1.1 activity: compound 100 µM; for EM (unclamped oocyte membrane potential) / Slope / V0.5 Normalized tail current: in presence of 100 µM compound
T2 construct: expressed in transfected cells; host or cells: Xenopus laevis oocytes injected with cRNA (pTLNx vector)
T2 sequence (Q09470 whole entry): as the sequence (Q09470 whole entry, stated change not applied) above
Description: (§1) Wild-type and mutant Kv1 cDNAs were generated (Genscript, Piscataway, NJ) in the pTLNx expression vector. As previously described, we generated cRNA transcripts encoding human Kv1.1 (wild-type and mutant) and Kv1.2, by in vitro transcription using the mMessage mMachine kit (Thermo Fisher Scientific), after vector linearization, from cDNA sub-cloned into plasmids (pTLNx) incorporating Xenopus laevis β-globin 5’ and 3’ UTRs flanking the coding region to enhance translation and cRNA stability. We injected defolliculated stage V and VI Xenopus laevis oocytes (Xenoocyte, Dexter, MI, US) with Kv1 cRNAs (1–5 ng). We incubated the oocytes at 16 °C in ND96 oocyte storage solution containing penicillin and streptomycin, with daily washing, for 2 days prior to two-electrode voltage-clamp (TEVC) recording.
(§2) We performed TEVC at room temperature using an OC-725C amplifier (Warner Instruments, Hamden, CT) and pClamp10 software (Molecular Devices, Sunnyvale, CA) 2 days after cRNA injection as described in the section above. For recording, oocytes we placed in a small-volume oocyte bath (Warner) and viewed with a dissection microscope. We sourced chemicals from Sigma. We studied effects of plant extracts and of compounds, solubilized directly in bath solution (in mM): 96 NaCl, 4 KCl, 1 MgCl2, 1 CaCl2, 10 HEPES (pH 7.6). We introduced extracts or compounds into the oocyte recording bath by gravity perfusion at a constant flow of 1 ml per minute for 3 min prior to recording. Pipettes were of 1–2 MΩ resistance when filled with 3 M KCl. We recorded currents in response to voltage pulses between −80 mV and +40 mV at 10 or 20 mV intervals from a holding potential of −80 mV, to yield current-voltage relationships and examine activation kinetics. To calculate the voltage dependence of activation (V0.5), tail currents were recorded at a voltage pulse of −50 mV immediately following prepulse voltages between −80 mV and +40 mV. We analyzed data using Clampfit (Molecular Devices) and Graphpad Prism software (GraphPad, San Diego, CA, USA), stating values as mean ± SEM. We plotted raw or normalized tail currents vs. prepulse voltage and fitted with a single Boltzmann function:1 g=(A1−A2)/1+exp[V1/2−V/Vs]y+A2 where g is the normalized tail conductance, A1 is the initial value at -∞, A2 is the final value at +∞, V1/2 is the half-maximal voltage of activation and Vs the slope factor.

Kv1.1-V408A channels = molecular target: T3, Kv1.1-V408A channels (Homo sapiens, UniProt Q09470, V408A); experiment: TEVC of oocytes expressing 100% Kv1.1-V408A; settings: compound 1 µM
T3 construct: expressed in transfected cells; host or cells: Xenopus laevis oocytes
T3 sequence (Q09470 whole entry V408A): as the sequence (Q09470 whole entry, stated change not applied) above, with V408A counted along it
Description: EA1 mutant G311D is in the S4-5 linker of Kv1.1 (Fig. 5a) and produces a 65% prepulse current reduction both in Kv1.1-G311D and in Kv1.1/Kv1.1-G311D channels[43],[44]; either channel type was minimally responsive to the plant extracts tested (Supplementary Figs. 3 and 4). EA1 mutant L328V (which is associated with tetany and hypomagnesemia) is located in the intracellular end of Kv1.1 S5 (Fig. 5a) and results in complete current loss in a dominant negative manner, i.e., Kv1.1-L328V and Kv1.1/Kv1.1-L328V channels are each nonfunctional. The traditional ataxia remedy plant extracts were unable to rescue Kv1.1-L328V or Kv1.1/Kv1.1-L328V function (Supplementary Figs. 5 and 6). EA1 mutant V408A is in the intracellular-proximal end of Kv1.1 S6 (Fig. 5a) and reduces current, speeds deactivation, and increases C-type inactivation of Kv1.1[46]. Here, Native American ataxia remedy extracts had relatively minor effects on Kv1.1-V408A activity, with nettle and Pacific ninebark (roots or leaves) inducing hyperpolarizing shifts in EM, and Pacific ninebark leaves inducing a negative shift in the voltage dependence of activation, although this was not quantifiable due to the very small tail currents (Supplementary Fig. 7). Effects of the extracts on Kv1.1/Kv1.1-V408A activity were also relatively minor (Supplementary Fig. 8). […]
(§3) We performed TEVC at room temperature using an OC-725C amplifier (Warner Instruments, Hamden, CT) and pClamp10 software (Molecular Devices, Sunnyvale, CA) 2 days after cRNA injection as described in the section above. […] We recorded currents in response to voltage pulses between −80 mV and +40 mV at 10 or 20 mV intervals from a holding potential of −80 mV, to yield current-voltage relationships and examine activation kinetics. To calculate the voltage dependence of activation (V0.5), tail currents were recorded at a voltage pulse of −50 mV immediately following prepulse voltages between −80 mV and +40 mV. We analyzed data using Clampfit (Molecular Devices) and Graphpad Prism software (GraphPad, San Diego, CA, USA), stating values as mean ± SEM. […]

[2] = molecular target: T4, Kv1.1/Kv1.1-E283K channels (Homo sapiens, UniProt Q09470, E283K); experiment: TEVC of oocytes co-injected with 50/50 wild-type/E283K Kv1.1 cRNA
T4 construct: expressed in transfected cells; host or cells: Xenopus laevis oocytes co-injected with 50/50 wild-type/mutant cRNA
T4 sequence (Q09470 whole entry, stated change not applied): as the sequence (Q09470 whole entry, stated change not applied) above
T4 sequence (Q09470 whole entry E283K): as the sequence (Q09470 whole entry, stated change not applied) above, with E283K counted along it
Method: (§4) We next tested effects on channels generated by co-injection of 50/50 wild-type/mutant Kv1.1 cRNA. Strikingly, gallic acid (1 µM) was able to hyperpolarize (by −15.5 ± 0.5 mV; n = 4; P < 0.0001) the V0.5 act of Kv1.1/Kv1.1-E283K channels, restoring voltage dependence typical of wild-type Kv1.1 (Fig. 7a–c), also inducing a −14 ± 0.7 mV hyperpolarization (n = 4; P = 0.0005) in EM of oocytes expressing Kv1.1/Kv1.1-E283K (Fig. 7d). […] Because of this hint at activity improvement in L155P channels we also applied higher concentrations (10 and 100 µM) of gallic acid, which produced a more robust (−12.5 ± 0.6 mV and −14.1 ± 0.6 mV, respectively) hyperpolarization of Kv1.1/Kv1.1-L155P V0.5 act (Fig. 8b, c) and hyperpolarized EM by −14.0 ± 0.6 mV and −15.2 ± 0.7 mV, respectively (Fig. 8d).
as §1, §2

[3] = molecular target: T5, Kv1.1/Kv1.1-V408A channels (Homo sapiens, UniProt Q09470, V408A); experiment: TEVC of oocytes co-injected with 50/50 wild-type/V408A Kv1.1 cRNA; settings: for effect on channel activity: compound 1 µM
T5 construct: expressed in transfected cells; host or cells: Xenopus laevis oocytes co-injected with 50/50 wild-type/mutant cRNA
T5 sequence (Q09470 whole entry, stated change not applied): as the sequence (Q09470 whole entry, stated change not applied) above
T5 sequence (Q09470 whole entry V408A): as the sequence (Q09470 whole entry, stated change not applied) above, with V408A counted along it
Method: as §4
Wild-type and mutant Kv1 cDNAs were generated (Genscript, Piscataway, NJ) in the pTLNx expression vector. As previously described, we generated cRNA transcripts encoding human Kv1.1 (wild-type and mutant) and Kv1.2, by in vitro transcription using the mMessage mMachine kit (Thermo Fisher Scientific), after vector linearization, from cDNA sub-cloned into plasmids (pTLNx) incorporating Xenopus laevis β-globin 5’ and 3’ UTRs flanking the coding region to enhance translation and cRNA stability. […]
as §3

O=C(O)c1cc(O)c(O)c(O)c1 [gallic acid]
hyperpolarization of EM ([1]; 1 µM): –9.1 ± 0.8 mV
shift in the voltage dependence of activation (V0.5 act) ([1]; 1 µM): −6.8 ± 0.6 mV
hyperpolarization of EM ([1]; 10 µM): −14.0 ± 0.6 mV
shift in the voltage dependence of activation (V0.5 act) ([1]; 10 µM): −12.5 ± 0.6 mV
hyperpolarization of EM ([1]; 100 µM): −15.2 ± 0.7 mV
shift in the voltage dependence of activation (V0.5 act) ([1]; 100 µM): −14.1 ± 0.6 mV
EM ([1]; in presence of 1 µM compound): -45.00 ± 0.78 mV
Slope ([1]; in presence of 1 µM compound): 4.84 ± 0.56 mV
V0.5 Normalized tail current ([1]; in presence of 1 µM compound): -30.59 ± 0.60 mV
EM ([1]; in presence of 10 µM compound): -48.89 ± 0.66 mV
Slope ([1]; in presence of 10 µM compound): 4.76 ± 0.51 mV
V0.5 Normalized tail current ([1]; in presence of 10 µM compound): -36.38 ± 0.62 mV
EM ([1]; in presence of 100 µM compound): -50.11 ± 0.69 mV
Slope ([1]; in presence of 100 µM compound): 4.68 ± 0.55 mV
V0.5 Normalized tail current ([1]; in presence of 100 µM compound): -37.93 ± 0.62 mV
shift of midpoint voltage-dependence of activation (V0.5 act) (wild-type human Kv1.1): −21.0 ± 2.5 mV
EC50 (wild-type human Kv1.1; EC50 for hyperpolarization of EM, oocytes expressing wild-type Kv1.1): 18 ± 6 nM
EC50 (wild-type human Kv1.1; EC50 for peak current augmentation, at −40 mV, Fig. 10): 379 ± 28 nM
EC50 (wild-type human Kv1.1; EC50 for ΔV0.5activation, dose response, Fig. 4): 54 ± 10 nM
lowest concentration that begins to hyperpolarize the resting membrane potential (wild-type human Kv1.1; Kv1.1-expressing oocytes): 100 nM
effect on Kv1.1 activity (wild-type human Kv1.1): highly efficacious Kv1.1 channel openers
maximal shift in V0.5activation (wild-type human Kv1.1; dose response, Fig. 4a): −20 mV
EM (unclamped oocyte membrane potential) (wild-type human Kv1.1): -49.60 ± 0.91 mV
Slope (wild-type human Kv1.1): 12.10 ± 2.32 mV
V0.5 Normalized tail current (wild-type human Kv1.1): -37.17 ± 2.59 mV
effect on channel activity (Kv1.1-V408A channels): ineffective at rescuing activity
hyperpolarization in EM ([2]; 1 µM): −14 ± 0.7 mV
hyperpolarizing shift of V0.5 act ([2]; 1 µM): −15.5 ± 0.5 mV
EM ([2]; in presence of 1 µM compound): -47.80 ± 0.65 mV
Slope ([2]; in presence of 1 µM compound): 5.70 ± 1.12 mV
V0.5 Normalized tail current ([2]; in presence of 1 µM compound): -27.50 ± 0.51 mV
effect on channel activity [3]: negligible
EM ([3]; in presence of 1 µM compound): -46.60 ± 0.60 mV

tannic acid
effect on channel activity ([1]; compound 1 µM): minimal
shift of midpoint voltage-dependence of activation (V0.5 act) (wild-type human Kv1.1): −25.6 ± 2.6 mV
effect on Kv1.1 activity (wild-type human Kv1.1): highly efficacious Kv1.1 channel openers
EC50 (wild-type human Kv1.1; dose response, Fig. 4, read-out: EC50 for ΔV0.5activation): 19 ± 1.5 nM
EM (unclamped oocyte membrane potential) (wild-type human Kv1.1): -54.40 ± 1.23 mV
Slope (wild-type human Kv1.1): 13.67 ± 2.01 mV
V0.5 Normalized tail current (wild-type human Kv1.1): -44.95 ± 2.49 mV
effect on channel activity (Kv1.1-V408A channels): subtle improvements in Kv1.1-V408A function but slowed its activation
hyperpolarizing shift of V0.5 act ([2]; 1 µM): −12 mV
effect on channel activity [3]: minimal
